Results taken from PubChem BioAssay AID2060910 (Molecular Pharmacology Branch, DTP, NCI, 2025).

System: 242566-281-R-J2-PDC complex spheroid viability
Assay: Anticancer human tumor 242566-281-R-J2-PDC patient-derived pancreatic carcinoma cell line growth inhibition [RAS]
Settings: for IC50: curve of first compound; for viability, T/C: stronger effect = lower value
Method in brief: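 Multi-cell-type spheroids: tumor cells plus HUVEC endothelial cells and mesenchymal stem cells. RAS-pathway inhibitors were combined with targeted agents, each dosed in half-log steps down from clinical Cmax, or from 10 microM when Cmax was unknown.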

[1] = second compound 0.00316 µM, first compound 0.0316 µM
[2] = second compound 0.00316 µM, first compound 0.1 µM
[3] = second compound 0.00316 µM, first compound 0.316 µM
[4] = second compound 0.00316 µM, first compound 1 µM
[5] = second compound 0.00316 µM, first compound 3.16 µM
[6] = second compound 0.00316 µM, first compound 10 µM
[7] = second compound 0.01 µM, first compound 0.0316 µM
[8] = second compound 0.01 µM, first compound 0.1 µM
[9] = second compound 0.01 µM, first compound 0.316 µM
[10] = second compound 0.01 µM, first compound 1 µM
[11] = second compound 0.01 µM, first compound 3.16 µM
[12] = second compound 0.01 µM, first compound 10 µM
[13] = second compound 0.0316 µM, first compound 0.0316 µM
[14] = second compound 0.0316 µM, first compound 0.1 µM
[15] = second compound 0.0316 µM, first compound 0.316 µM
[16] = second compound 0.0316 µM, first compound 1 µM
[17] = second compound 0.0316 µM, first compound 3.16 µM
[18] = second compound 0.0316 µM, first compound 10 µM
[19] = second compound 0.1 µM, first compound 0.0316 µM
[20] = second compound 0.1 µM, first compound 0.1 µM
[21] = second compound 0.1 µM, first compound 0.316 µM
[22] = second compound 0.1 µM, first compound 1 µM
[23] = second compound 0.1 µM, first compound 3.16 µM
[24] = second compound 0.1 µM, first compound 10 µM
[25] = second compound 0.316 µM, first compound 0.0316 µM
[26] = second compound 0.316 µM, first compound 0.1 µM
[27] = second compound 0.316 µM, first compound 0.316 µM
[28] = second compound 0.316 µM, first compound 1 µM
[29] = second compound 0.316 µM, first compound 3.16 µM
[30] = second compound 0.316 µM, first compound 10 µM
[31] = second compound 1 µM, first compound 0.0316 µM
[32] = second compound 1 µM, first compound 0.1 µM
[33] = second compound 1 µM, first compound 0.316 µM
[34] = second compound 1 µM, first compound 1 µM
[35] = second compound 1 µM, first compound 3.16 µM
[36] = second compound 1 µM, first compound 10 µM
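Also: spheroids exposed to compound for 7 days before readout.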
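For viability, T/C in this document: 100% = DMSO vehicle control wells.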

Cc1nc(N2CCC3(CC2)COC(C)C3N)c(CO)nc1Sc1ccnc(N)c1Cl (stereo unspecified) + C=CC(=O)N1CCN(c2nc(OCC3CCCN3C)nc3c(F)c(-c4nc(N)cc(C)c4C(F)(F)F)c(Cl)cc23)C(C)C1
IC50 (second compound 0.00316 µM): > 10 µM | IC50 (second compound 0.01 µM): > 10 µM | IC50 (second compound 0.0316 µM): > 10 µM | IC50 (second compound 0.1 µM): > 10 µM | IC50 (second compound 0.316 µM): > 10 µM | IC50 (second compound 1 µM): > 10 µM | viability, T/C [1]: 115% | viability, T/C [2]: 136% | viability, T/C [3]: 102% | viability, T/C [4]: 80.1% | viability, T/C [5]: 104% | viability, T/C [6]: 105% | viability, T/C [7]: 129% | viability, T/C [8]: 120% | viability, T/C [9]: 89.3% | viability, T/C [10]: 70.8% | viability, T/C [11]: 94% | viability, T/C [12]: 116% | viability, T/C [13]: 118% | viability, T/C [14]: 124% | viability, T/C [15]: 99.1% | viability, T/C [16]: 77.4% | viability, T/C [17]: 100% | viability, T/C [18]: 120% | viability, T/C [19]: 157% | viability, T/C [20]: 119% | viability, T/C [21]: 89.4% | viability, T/C [22]: 84.6% | viability, T/C [23]: 83.1% | viability, T/C [24]: 113% | viability, T/C [25]: 132% | viability, T/C [26]: 151% | viability, T/C [27]: 96% | viability, T/C [28]: 85% | viability, T/C [29]: 102% | viability, T/C [30]: 113% | viability, T/C [31]: 141% | viability, T/C [32]: 130% | viability, T/C [33]: 93.2% | viability, T/C [34]: 85.7% | viability, T/C [35]: 112% | viability, T/C [36]: 113%

NC1c2ccccc2OC12CCN(c1cnc3c(N4CCCc5ncccc54)n[nH]c3n1)CC2 (stereo unspecified) + C=CC(=O)N1CCN(c2nc(OCC3CCCN3C)nc3c(F)c(-c4nc(N)cc(C)c4C(F)(F)F)c(Cl)cc23)C(C)C1
IC50 (second compound 0.00316 µM): > 10 µM | IC50 (second compound 0.01 µM): > 10 µM | IC50 (second compound 0.0316 µM): > 10 µM | IC50 (second compound 0.1 µM): > 10 µM | IC50 (second compound 0.316 µM): > 10 µM | IC50 (second compound 1 µM): > 10 µM | viability, T/C [1]: 104% | viability, T/C [2]: 128% | viability, T/C [3]: 83.3% | viability, T/C [4]: 82.7% | viability, T/C [5]: 79.5% | viability, T/C [6]: 61.7% | viability, T/C [7]: 99% | viability, T/C [8]: 122% | viability, T/C [9]: 107% | viability, T/C [10]: 72.2% | viability, T/C [11]: 98.7% | viability, T/C [12]: 62.6% | viability, T/C [13]: 120% | viability, T/C [14]: 126% | viability, T/C [15]: 86.9% | viability, T/C [16]: 89.3% | viability, T/C [17]: 77.1% | viability, T/C [18]: 56.2% | viability, T/C [19]: 124% | viability, T/C [20]: 129% | viability, T/C [21]: 98.8% | viability, T/C [22]: 67.5% | viability, T/C [23]: 73.3% | viability, T/C [24]: 54.7% | viability, T/C [25]: 124% | viability, T/C [26]: 138% | viability, T/C [27]: 87% | viability, T/C [28]: 84.4% | viability, T/C [29]: 76.2% | viability, T/C [30]: 56.8% | viability, T/C [31]: 122% | viability, T/C [32]: 119% | viability, T/C [33]: 76.1% | viability, T/C [34]: 87.4% | viability, T/C [35]: 91% | viability, T/C [36]: 60.4%

Nc1ccn(C2OC(CO)C(O)C2(F)F)c(=O)n1 (stereo unspecified) + C=CC(=O)N1CCN(c2nc(OCC3CCCN3C)nc3c(F)c(-c4nc(N)cc(C)c4C(F)(F)F)c(Cl)cc23)C(C)C1
IC50 (second compound 0.00316 µM): 0.108 µM | IC50 (second compound 0.01 µM): 0.112 µM | IC50 (second compound 0.0316 µM): 0.103 µM | IC50 (second compound 0.1 µM): 0.0969 µM | IC50 (second compound 0.316 µM): 0.0573 µM | IC50 (second compound 1 µM): 0.0972 µM | viability, T/C (second compound 0.00316 µM, first compound 0.00316 µM): 101% | viability, T/C (second compound 0.00316 µM, first compound 0.01 µM): 118% | viability, T/C [1]: 92.6% | viability, T/C [2]: 52.1% | viability, T/C [3]: 25.9% | viability, T/C [4]: 18.4% | viability, T/C (second compound 0.01 µM, first compound 0.00316 µM): 123% | viability, T/C (second compound 0.01 µM, first compound 0.01 µM): 128% | viability, T/C [7]: 93.6% | viability, T/C [8]: 53.8% | viability, T/C [9]: 26% | viability, T/C [10]: 16.2% | viability, T/C (second compound 0.0316 µM, first compound 0.00316 µM): 103% | viability, T/C (second compound 0.0316 µM, first compound 0.01 µM): 147% | viability, T/C [13]: 74.3% | viability, T/C [14]: 60% | viability, T/C [15]: 21.6% | viability, T/C [16]: 15.8% | viability, T/C (second compound 0.1 µM, first compound 0.00316 µM): 134% | viability, T/C (second compound 0.1 µM, first compound 0.01 µM): 124% | viability, T/C [19]: 91.3% | viability, T/C [20]: 50.8% | viability, T/C [21]: 21.5% | viability, T/C [22]: 19.1% | viability, T/C (second compound 0.316 µM, first compound 0.00316 µM): 115% | viability, T/C (second compound 0.316 µM, first compound 0.01 µM): 160% | viability, T/C [25]: 75.5% | viability, T/C [26]: 41.9% | viability, T/C [27]: 20.6% | viability, T/C [28]: 15.7% | viability, T/C (second compound 1 µM, first compound 0.00316 µM): 115% | viability, T/C (second compound 1 µM, first compound 0.01 µM): 102% | viability, T/C [31]: 83.6% | viability, T/C [32]: 50.9% | viability, T/C [33]: 22% | viability, T/C [34]: 18.9%
